# From patent US20260022142A1, “MACROCYCLIC IMMUNOMODULATORS” (Bristol-Myers Squibb Company, priority 2022, published 2026)
# Numbered stars: 1 amine (or outer) side, 2 acyl side, 3 side chain; on linkers, the order of the positions; unused ones are H or OH. Bridge positions count the residues as written; N and C are the ends. Square brackets hold non-standard residues; d marks the D form. Peptide text beside a SMILES is read from it. * marks the point of attachment. ξ: configuration not given here. Phe(4-CH2CH2COOH) = N[C@@H](Cc1ccc(CCC(=O)O)cc1)C(=O)O; Phe(3-CF3) = N[C@@H](Cc1cccc(C(F)(F)F)c1)C(=O)O; Ala(morpholin-4-yl) = N[C@@H](CN1CCOCC1)C(=O)O; Phe(4-COOH) = N[C@@H](Cc1ccc(C(=O)O)cc1)C(=O)O; Bip = N[C@@H](Cc1ccc(-c2ccccc2)cc1)C(=O)O; Phe(3-F) = N[C@@H](Cc1cccc(F)c1)C(=O)O; Phe(3-Me) = Cc1cccc(C[C@H](N)C(=O)O)c1; βAsp = O=C(O)[C@H](CC(=O)[*:2])N[*:1]; NH(CH2)12COOH = O=C(O)CCCCCCCCCCCCN*; Val(3-OH) = CC(C)(O)[C@H](N)C(=O)O; hArg = N=C(N)NCCCC[C@H](N)C(=O)O; 4Pal = N[C@@H](Cc1ccncc1)C(=O)O; Cha = N[C@@H](CC1CCCCC1)C(=O)O; Cit = NC(=O)NCCC[C@H](N)C(=O)O; Thr(3ξ) = CC(O)[C@H](N)C(=O)O; 12Ado = NCCCCCCCCCCCC(=O)O; Carboxymethyl = O=C(O)C*; Orn = NCCC[C@H](N)C(=O)O; Aun = NCCCCCCCCCCC(=O)O; Dab = NCC[C@H](N)C(=O)O; Nva = CCC[C@H](N)C(=O)O; Dap = NC[C@H](N)C(=O)O; AEEA = NCCOCCOCC(=O)O; Piv = CC(C)(C)C(=O)*
# Molecular target: T1, PD-1/PD-L1 interaction (PE-labeled human PD-L1-Ig binding to Jurkat cell line over-expressing human PD-1) (Homo sapiens, UniProt Q15116)
# T1 construct: expressed in transfected cells; host or cells: Jurkat
# Experiment: Jurkat-PD-1 Cell Binding High-Content Screening Assay (CBA)
# Type: cell-based
# Settings: Jurkat cell line over-expressing human PD-1; PE-labeled PD-L1-Ig 20 nM final; read-out: Jurkat hPD1-PDL1 IC50
# Method in brief: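 Binding of fluorescent PD-L1-Ig (phycoerythrin on Ig tag, 20 nM final, 1 h) measured by high-content imaging of fixed, Hoechst-counterstained Jurkat-hPD-1 cells. Compound added 2 h at 37° C beforehand, in DMEM with 10% fetal calf serum.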
# T1 sequence (Q15116 25-288): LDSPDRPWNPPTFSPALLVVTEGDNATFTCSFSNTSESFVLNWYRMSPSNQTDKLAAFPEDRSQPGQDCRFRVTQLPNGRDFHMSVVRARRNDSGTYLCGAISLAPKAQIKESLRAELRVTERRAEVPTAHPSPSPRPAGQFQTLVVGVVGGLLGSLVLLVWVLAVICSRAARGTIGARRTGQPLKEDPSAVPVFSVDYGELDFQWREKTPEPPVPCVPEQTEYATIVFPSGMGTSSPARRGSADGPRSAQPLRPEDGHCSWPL
row,IC50 [µM],Compound
1,0.0277,CC(C)C[C@H]1NC(=O)[C@H](CCCN)NC(=O)[C@H](C(C)C)NC(=O)[C@H](Cc2ccc(-c3ccccc3)cc2)NC(=O)[C@H](C(C)C)NC(=O)[C@H](Cc2c[nH]c3ccccc23)NC(=O)[C@H](CC(=O)O)NC(=O)[C@H](Cc2ccc(OCC(=O)O)cc2)NC(=O)[C@H](C(C)O)NC(=O)CSC[C@@H](C(=O)N[C@@H](CCN)C(=O)NCCCCCCCCCCC(=O)O)NC(=O)[C@H](CO)NC(=O)[C@H](C(C)O)NC(=O)[C@H](CC2CCCCC2)NC(=O)[C@H](CCN)NC1=O (stereo partly drawn) [Compound 3664] ({CH2CO}-[Thr(3ξ)]Y(Carboxymethyl)DWV[Bip]V[Orn][dL][Dab][Cha][Thr(3ξ)]SC[Dab][Aun]-OH; thioether N-14)
2,0.033,CC(C)C[C@H]1NC(=O)[C@H](CCCN)NC(=O)[C@H](CCC(=O)O)NC(=O)[C@H](Cc2ccc(-c3ccccc3)cc2)NC(=O)[C@H](C(C)C)NC(=O)[C@H](Cc2c[nH]c3ccccc23)NC(=O)[C@H](CC(=O)O)NC(=O)[C@H](Cc2ccc(C(=O)O)cc2)NC(=O)[C@H](Cc2ccc(OCC(=O)O)cc2)NC(=O)CSC[C@@H](C(=O)NCC(=O)NCCOCCOCC(=O)N[C@@H](CCCN)C(=O)NCCCCCCCCCCCC(=O)O)NC(=O)[C@H](CO)NC(=O)[C@H](C(C)C)NC(=O)[C@H](CC2CCCCC2)NC(=O)[C@H](CCN)NC1=O [Compound 3062] ({CH2CO}-Y(Carboxymethyl)[Phe(4-COOH)]DWV[Bip]E[Orn][dL][Dab][Cha]VSCG[AEEA][Orn][12Ado]-OH; thioether N-14)
3,0.0408,Cc1cccc(C[C@@H]2NC(=O)[C@H](CC(=O)O)NC(=O)[C@H](Cc3ccc(OCC(=O)O)cc3)NC(=O)[C@H](CCCNC(=N)N)NC(=O)CSC[C@@H](C(=O)N[C@H](CC(N)=O)C(=O)NCCCCCCCCCCC(=O)O)NC(=O)[C@H](C(C)O)NC(=O)[C@H](C(C)O)NC(=O)[C@H](CC3CCCCC3)NC(=O)[C@H](CCN)NC(=O)[C@@H](CC(C)C)NC(=O)[C@H](CCCN)NC(=O)[C@H](CCCNC(N)=O)NC(=O)[C@H](Cc3ccc(-c4ccccc4)cc3)NC(=O)[C@H](C(C)C)NC2=O)c1 (stereo partly drawn) [Compound 3522] ({CH2CO}-RY(Carboxymethyl)D[Phe(3-Me)]V[Bip][Cit][Orn][dL][Dab][Cha][Thr(3ξ)][Thr(3ξ)]C[dN][Aun]-OH; thioether N-14)
4,0.0068,Cc1cccc(C[C@@H]2NC(=O)[C@H](CC(=O)O)NC(=O)[C@H](Cc3ccc(OCC(=O)O)cc3)NC(=O)[C@H](CCN)NC(=O)CSC[C@@H](C(=O)N[C@@H](CC(N)=O)C(=O)NCCCCCCCCCCC(=O)O)NC(=O)[C@H](Cc3cnc[nH]3)NC(=O)[C@H](C(C)O)NC(=O)[C@H](CC3CCCCC3)NC(=O)[C@H](CCN)NC(=O)[C@@H](CC(C)C)NC(=O)[C@H](CCCN)NC(=O)[C@H](Cc3ccc(OCC(=O)O)cc3)NC(=O)[C@H](Cc3ccc(-c4ccccc4)cc3)NC(=O)[C@H](Cc3ccc(OCC(=O)O)cc3)NC2=O)c1 (stereo partly drawn) [Compound 3642] ({CH2CO}-[Dab]Y(Carboxymethyl)D[Phe(3-Me)]Y(Carboxymethyl)[Bip]Y(Carboxymethyl)[Orn][dL][Dab][Cha][Thr(3ξ)]HCN[Aun]-OH; thioether N-14)
5,0.0092,CC(C)C[C@H]1NC(=O)[C@H](CN)NC(=O)[C@H](C(C)C)NC(=O)[C@H](Cc2ccc(-c3ccccc3)cc2)NC(=O)[C@H](C(C)C)NC(=O)[C@H](Cc2c[nH]c3ccccc23)NC(=O)[C@H](CC(=O)O)NC(=O)[C@H](Cc2ccc(OCC(=O)O)cc2)NC(=O)[C@H](CCCCNC(=N)N)NC(=O)CSC[C@@H](C(=O)NCCOCCOCC(=O)NCCCCCCCCCCC(=O)O)NC(=O)[C@H](CCCCN)NC(=O)[C@H](C(C)C)NC(=O)[C@H](CC2CCCCC2)NC(=O)[C@H](CCN)NC1=O [Compound 3266] ({CH2CO}-[hArg]Y(Carboxymethyl)DWV[Bip]V[Dap][dL][Dab][Cha]VKC[AEEA][Aun]-OH; thioether N-14)
6,0.012,Cc1cccc(C[C@@H]2NC(=O)[C@H](CC(=O)O)NC(=O)[C@H](Cc3ccc(OCC(=O)O)cc3)NC(=O)[C@H](CCCNC(=N)N)NC(=O)CSC[C@@H](C(=O)N[C@@H](CCN)C(=O)NCCCCCCCCCCC(=O)O)NC(=O)[C@H](CCCN)NC(=O)[C@H](C(C)C)NC(=O)[C@H](CC3CCCCC3)NC(=O)[C@H](CCN)NC(=O)[C@@H](CC(C)C)NC(=O)[C@H](CCCN)NC(=O)[C@H](C(C)C)NC(=O)[C@H](Cc3ccc(-c4ccccc4)cc3)NC(=O)[C@H](C(C)C)NC2=O)c1 [Compound 3292] ({CH2CO}-RY(Carboxymethyl)D[Phe(3-Me)]V[Bip]V[Orn][dL][Dab][Cha]V[Orn]C[Dab][Aun]-OH; thioether N-14)

# Continued, molecule first:
row,Compound,IC50 [µM]
1,Cc1cccc(C[C@@H]2NC(=O)[C@H](CC(=O)O)NC(=O)[C@H](Cc3ccc(CCC(=O)O)cc3)NC(=O)[C@H](CCN)NC(=O)CSC[C@@H](C(=O)N[C@@H](CCN)C(=O)NCCCCCCCCCCC(=O)O)NC(=O)[C@H](CO)NC(=O)[C@H](C(C)(C)O)NC(=O)[C@H](CC3CCCCC3)NC(=O)[C@H](CCN)NC(=O)[C@@H](CC(C)C)NC(=O)[C@H](CCCN)NC(=O)[C@H](Cc3ccc(OCC(=O)O)cc3)NC(=O)[C@H](Cc3ccc(-c4ccccc4)cc3)NC(=O)[C@H](Cc3cccc(F)c3)NC2=O)c1 [Compound 2144] ({CH2CO}-[Dab][Phe(4-CH2CH2COOH)]D[Phe(3-Me)][Phe(3-F)][Bip]Y(Carboxymethyl)[Orn][dL][Dab][Cha][Val(3-OH)]SC[Dab][Aun]-OH; thioether N-14),0.0073
2,CC(C)C[C@H]1NC(=O)[C@H](CCCN)NC(=O)[C@H](Cc2ccc(O)cc2)NC(=O)[C@H](Cc2ccc(-c3ccccc3)cc2)NC(=O)[C@H](Cc2ccc(O)cc2)NC(=O)[C@H](Cc2c[nH]c3ccccc23)NC(=O)[C@H](CC(=O)O)NC(=O)[C@H](Cc2ccc(OCC(=O)O)cc2)NC(=O)[C@H](Cc2ccc(OCC(=O)O)cc2)NC(=O)CSC[C@@H](C(=O)N[C@@H](CCN)C(=O)NCCCCCCCCCCC(=O)O)NC(=O)[C@H](CCCN)NC(=O)[C@H](Cc2ccc(O)cc2)NC(=O)[C@H](CC2CCCCC2)NC(=O)[C@H](CCN)NC1=O [Compound 2513] ({CH2CO}-Y(Carboxymethyl)Y(Carboxymethyl)DWY[Bip]Y[Orn][dL][Dab][Cha]Y[Orn]C[Dab][Aun]-OH; thioether N-14),0.0813
3,Cc1cccc(C[C@@H]2NC(=O)[C@H](CC(=O)O)NC(=O)[C@H](Cc3ccc(OCC(=O)O)cc3)NC(=O)[C@H](CCNC(=O)C(C)(C)C)NC(=O)CSC[C@@H](C(=O)N[C@@H](CCN)C(=O)NCCCCCCCCCCC(=O)O)NC(=O)[C@H](CCC(N)=O)NC(=O)[C@H](C(C)C)NC(=O)[C@H](CC3CCCCC3)NC(=O)[C@H](CCN)NC(=O)[C@@H](CC(C)C)NC(=O)[C@H](CCCN)NC(=O)[C@H](Cc3ccc(OCC(=O)O)cc3)NC(=O)[C@H](Cc3ccc(-c4ccccc4)cc3)NC(=O)[C@H](Cc3ccc(O)cc3)NC2=O)c1 [Compound 2112] ({CH2CO}-[Dab](Piv)Y(Carboxymethyl)D[Phe(3-Me)]Y[Bip]Y(Carboxymethyl)[Orn][dL][Dab][Cha]VQC[Dab][Aun]-OH; thioether N-14),0.0055
4,Cc1cccc(C[C@@H]2NC(=O)[C@H](CC(=O)O)NC(=O)[C@H](Cc3ccncc3)NC(=O)[C@H](Cc3ccc(OCC(=O)O)cc3)NC(=O)CSC[C@@H](C(=O)N[C@@H](CCCN)C(=O)NCCCCCCCCCCC(=O)O)NC(=O)[C@H]([C@@H](C)O)NC(=O)[C@H](C(C)C)NC(=O)[C@H](CC3CCCCC3)NC(=O)[C@H](CCN)NC(=O)[C@@H](CC(C)C)NC(=O)[C@H](CCCN)NC(=O)[C@H](C(C)C)NC(=O)[C@H](Cc3ccc(-c4ccccc4)cc3)NC(=O)[C@H](C(C)C)NC2=O)c1 [Compound 1165] ({CH2CO}-Y(Carboxymethyl)[4Pal]D[Phe(3-Me)]V[Bip]V[Orn][dL][Dab][Cha]VTC[Orn][Aun]-OH; thioether N-14),0.104
5,CC(C)C[C@H]1NC(=O)[C@H](CCCN)NC(=O)[C@H](C(C)C)NC(=O)[C@H](Cc2ccc(-c3ccccc3)cc2)NC(=O)[C@H](C(C)C)NC(=O)[C@H](Cc2c[nH]c3ccccc23)NC(=O)[C@H](CC(=O)O)NC(=O)[C@H](Cc2ccc(OCC(=O)O)cc2)NC(=O)[C@H](Cc2ccc(OCC(=O)O)cc2)NC(=O)CSC[C@@H](C(=O)NCCCCCCCCCCC(=O)O)NC(=O)[C@H](CCCN)NC(=O)[C@H](C(C)C)NC(=O)[C@H](CC2CCCCC2)NC(=O)[C@H](CCN)NC1=O [Compound 2607] ({CH2CO}-Y(Carboxymethyl)Y(Carboxymethyl)DWV[Bip]V[Orn][dL][Dab][Cha]V[Orn]C[Aun]-OH; thioether N-14),0.0297
6,CCC[C@@H]1NC(=O)CSC[C@@H](C(=O)N[C@@H](CCN)C(=O)NCCOCCOCC(=O)N[C@@H](CC(=O)NCCOCCOCC(=O)NCCCCCCCCCCCCC(=O)O)C(=O)O)NC(=O)[C@H](CO)NC(=O)[C@H](C(C)(C)O)NC(=O)[C@H](CC2CCCCC2)NC(=O)[C@H](CCN)NC(=O)[C@@H](CC(C)C)NC(=O)[C@H](CCCN)NC(=O)[C@H](Cc2ccc(C(=O)O)cc2)NC(=O)[C@H](Cc2ccc(-c3ccccc3)cc2)NC(=O)[C@H](Cc2ccc(C(=O)O)cc2)NC(=O)[C@H](Cc2cccc(C(F)(F)F)c2)NC(=O)[C@H](CC(=O)O)NC(=O)[C@H](Cc2ccc(OCC(=O)O)cc2)NC1=O [Compound 2931] ({CH2CO}-[Nva]Y(Carboxymethyl)D[Phe(3-CF3)][Phe(4-COOH)][Bip][Phe(4-COOH)][Orn][dL][Dab][Cha][Val(3-OH)]SC[Dab][AEEA][βAsp][AEEA]-{NH(CH2)12COOH}; thioether N-14),0.0263
7,CC(C)C[C@H]1NC(=O)[C@H](CCCN)NC(=O)[C@H](Cc2ccc(C(=O)O)cc2)NC(=O)[C@H](Cc2ccc(-c3ccccc3)cc2)NC(=O)[C@H](Cc2ccc(C(=O)O)cc2)NC(=O)[C@H](Cc2cccc(C(F)(F)F)c2)NC(=O)[C@H](CC(=O)O)NC(=O)[C@H](Cc2ccc(OCC(=O)O)cc2)NC(=O)[C@H](CN2CCOCC2)NC(=O)CSC[C@@H](C(=O)N[C@@H](CCN)C(=O)NCCCCCCCCCCCCC(=O)O)NC(=O)[C@H](CC(=O)O)NC(=O)[C@H](C(C)(C)O)NC(=O)[C@H](CC2CCCCC2)NC(=O)[C@H](CCN)NC1=O [Compound 2921] ({CH2CO}-[Ala(morpholin-4-yl)]Y(Carboxymethyl)D[Phe(3-CF3)][Phe(4-COOH)][Bip][Phe(4-COOH)][Orn][dL][Dab][Cha][Val(3-OH)]DC[Dab]-{NH(CH2)12COOH}; thioether N-14),0.0205
